Results from PubChem BioAssay AID330 (DTP/NCI, 2004).
Where “and” joins values, the source holds several entries; their conditions need not be identical. Equal entries are not always repeated. Inconclusive results and toxic doses are left out. The calls were made as follows: active = survival T/C of 150% or more; inactive = T/C below 125% in these data.

System: P388 leukemia ip, CD2F1 mice, survival T/C
Assay: NCI In Vivo Anticancer Drug Screen. Data for tumor model P388 Leukemia (intraperitoneal) in CD2F1 (CDF1) mice
Conditions: endpoint: median survival time, higher = longer survival
Procedure, shortened: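 Mice carrying the transplanted tumor received test compound or vehicle. Survival was recorded in each group, and the value is the treated-group measurement divided by that of the vehicle-treated control group.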

[1] = dose: 50.0 mg/kg/injection, schedule: Q01DX005 (ip), vehicle: saline with Tween-80
[2] = dose: 100.0 mg/kg/injection, schedule: Q01DX005 (ip), vehicle: saline with Tween-80
[3] = dose: 200.0 mg/kg/injection, schedule: Q01DX005 (ip), vehicle: saline with Tween-80
[4] = dose: 25.0 mg/kg/injection, schedule: Q01DX001 (ip), vehicle: saline with Tween-80
[5] = dose: 50.0 mg/kg/injection, schedule: Q01DX005 (ip), vehicle: saline
[6] = dose: 100.0 mg/kg/injection, schedule: Q01DX005 (ip), vehicle: saline
[7] = dose: 200.0 mg/kg/injection, schedule: Q01DX005 (ip), vehicle: saline
[8] = dose: 50.0 mg/kg/injection, schedule: Q01DX009 (ip), vehicle: saline with Tween-80
[9] = dose: 60.0 mg/kg/injection, schedule: Q01DX005 (ip), vehicle: saline with Tween-80
[10] = dose: 120.0 mg/kg/injection, schedule: Q01DX005 (ip), vehicle: saline with Tween-80
[11] = dose: 240.0 mg/kg/injection, schedule: Q01DX005 (ip), vehicle: saline with Tween-80
[12] = dose: 100.0 mg/kg/injection, schedule: Q01DX001 (ip), vehicle: saline with Tween-80
[13] = dose: 200.0 mg/kg/injection, schedule: Q01DX001 (ip), vehicle: saline with Tween-80
[14] = dose: 400.0 mg/kg/injection, schedule: Q01DX001 (ip), vehicle: saline with Tween-80

Measured: T/C

O=C(CCc1n[nH]c(=S)o1)Nc1ccccc1
inactive: [1] 102 % of control | [2] 95 % of control | [3] 96 % of control

OCCCOCCCOCCCOCCCOCCCOCCCO
inactive: [1] 100 % of control | [2] 96 % of control | [3] 102 % of control

CCOC(=O)/C(C#N)=C/Nc1cc(C(=O)OCC)cc2c(OC)c(OC)ccc12
inactive: dose: 12.5 mg/kg/injection, schedule: Q01DX009 (ip), vehicle: distilled water + Tween-80 97 % of control | dose: 25.0 mg/kg/injection, schedule: Q01DX009 (ip), vehicle: distilled water + Tween-80 93 % of control | dose: 50.0 mg/kg/injection, schedule: Q01DX009 (ip), vehicle: distilled water + Tween-80 106 % of control | dose: 100.0 mg/kg/injection, schedule: Q01DX009 (ip), vehicle: distilled water + Tween-80 106 % of control | dose: 200.0 mg/kg/injection, schedule: Q01DX009 (ip), vehicle: distilled water + Tween-80 110 % of control

CSc1nc(SC)c2c(CN=[N+]=[N-])c(Br)n(Cc3ccccc3)c2n1
inactive: dose: 3.13 mg/kg/injection, schedule: Q01DX001 (ip), vehicle: saline with Tween-80 98 % of control | dose: 6.25 mg/kg/injection, schedule: Q01DX001 (ip), vehicle: saline with Tween-80 86 % of control | [4] 86 % of control

CN(C)CCCN1CCC2(CCCCC2)CC1
inactive: [5] 94 % of control | [6] 98 % of control | [7] 109 % of control

OC(Nc1nccs1)C(F)(F)F (centres undefined)
inactive: dose: 12.5 mg/kg/injection, schedule: Q01DX009 (ip), vehicle: saline 99 % of control | dose: 25.0 mg/kg/injection, schedule: Q01DX009 (ip), vehicle: saline 100 % of control | [8] 95 % of control | dose: 50.0 mg/kg/injection, schedule: Q01DX009 (ip), vehicle: saline 101 % of control

[N-]=[N+]=CC(=O)OCC1NC(=O)C(COC(=O)C=[N+]=[N-])NC1=O (centres undefined)
inactive: dose: 12.5 mg/kg/injection, schedule: Q01DX009 (ip), vehicle: other 104 % of control and 102 % of control | dose: 25.0 mg/kg/injection, schedule: Q01DX009 (ip), vehicle: other 113 % of control and 101 % of control | dose: 100.0 mg/kg/injection, schedule: Q01DX009 (ip), vehicle: other 111 % of control and 120 % of control | dose: 200.0 mg/kg/injection, schedule: Q01DX009 (ip), vehicle: other 95 % of control and 111 % of control | dose: 3.1 micrograms/kg/injection, schedule: Q01DX009 (ip), vehicle: water 109 % of control and 104 % of control | dose: 6.1 micrograms/kg/injection, schedule: Q01DX009 (ip), vehicle: water 98 % of control and 101 % of control | dose: 12.2 micrograms/kg/injection, schedule: Q01DX009 (ip), vehicle: water 114 % of control and 100 % of control | dose: 24.4 micrograms/kg/injection, schedule: Q01DX009 (ip), vehicle: water 104 % of control and 107 % of control | dose: 48.8 micrograms/kg/injection, schedule: Q01DX009 (ip), vehicle: water 100 % of control | dose: 97.5 micrograms/kg/injection, schedule: Q01DX009 (ip), vehicle: water 92 % of control and 97 % of control | dose: 195.0 micrograms/kg/injection, schedule: Q01DX009 (ip), vehicle: water 100 % of control and 96 % of control | dose: 390.0 micrograms/kg/injection, schedule: Q01DX009 (ip), vehicle: water 109 % of control and 105 % of control | dose: 780.0 micrograms/kg/injection, schedule: Q01DX009 (ip), vehicle: water 100 % of control

NNC(=O)C1C2c3ccccc3C(c3ccccc32)C1C(=O)NN (centres undefined)
inactive: [9] 99 % of control | [10] 99 % of control | [11] 96 % of control

CC(C)(C)C(=O)CC(=O)C(F)(F)C(F)(F)C(F)(F)F.CC(C)(C)C(=O)CC(=O)C(F)(F)C(F)(F)C(F)(F)F.CC(C)(C)C(=O)CC(=O)C(F)(F)C(F)(F)C(F)(F)F.[Pr]
inactive: [10] 116 % of control | [11] 113 % of control

CC(CC(N)=O)Cc1ccccc1 (centres undefined)
inactive: [12] 104 % of control | [13] 103 % of control | [14] 104 % of control

CCOC1(OCC)Oc2c(Cl)c(Cl)c(Cl)c(Cl)c2OC1(OCC)OCC
inactive: dose: 60.0 mg/kg/injection, schedule: Q01DX005 (ip), vehicle: Klucel (hydroxypropylcellulose) (HPC) 99 % of control | dose: 120.0 mg/kg/injection, schedule: Q01DX005 (ip), vehicle: Klucel (hydroxypropylcellulose) (HPC) 100 % of control | dose: 240.0 mg/kg/injection, schedule: Q01DX005 (ip), vehicle: Klucel (hydroxypropylcellulose) (HPC) 104 % of control

CC(C)(CNC(=O)C12CC3CC(CC(C3)C1)C2)NC(=O)C12CC3CC(CC(C3)C1)C2
inactive: dose: 12.5 mg/kg/injection, schedule: Q01DX005 (ip), vehicle: Klucel (hydroxypropylcellulose) (HPC) 98 % of control | dose: 25.0 mg/kg/injection, schedule: Q01DX005 (ip), vehicle: Klucel (hydroxypropylcellulose) (HPC) 107 % of control | dose: 50.0 mg/kg/injection, schedule: Q01DX005 (ip), vehicle: Klucel (hydroxypropylcellulose) (HPC) 93 % of control | dose: 100.0 mg/kg/injection, schedule: Q01DX005 (ip), vehicle: Klucel (hydroxypropylcellulose) (HPC) 88 % of control

COC1=CCC2=C(CC[C@H]3[C@H]2CCP3C)C1 (some centres undefined)
inactive: [1] 101 % of control | [2] 111 % of control | [3] 103 % of control

COc1cccc(/C=N\NC(=O)C(C)SC(C)C(=O)N/N=C/c2cccc(OC)c2)c1 (centres undefined)
inactive: dose: 100.0 mg/kg/injection, schedule: Q04DX003 (ip), vehicle: saline with Tween-80 104 % of control | dose: 200.0 mg/kg/injection, schedule: Q04DX003 (ip), vehicle: saline with Tween-80 90 % of control | dose: 400.0 mg/kg/injection, schedule: Q04DX003 (ip), vehicle: saline with Tween-80 100 % of control

CN(CCNN1CCCC1)Cc1ccccc1Cl
inactive: dose: 12.5 mg/kg/injection, schedule: Q01DX005 (ip), vehicle: saline 102 % of control | dose: 25.0 mg/kg/injection, schedule: Q01DX005 (ip), vehicle: saline 105 % of control | [5] 102 % of control and 108 % of control | [6] 103 % of control

CC1=C(C(=O)Nc2ccc(Cl)c(C(=O)OC(C)C)c2)SCCO1
inactive: [12] 96 % of control | [13] 92 % of control | [14] 87 % of control

CC(=O)OC1C(OC(=O)c2ccccc2)C=CC2OC21COC(=O)c1ccccc1 (centres undefined)
inactive: dose: 25.0 mg/kg/injection, schedule: Q01DX005 (ip), vehicle: saline + alcohol 97 % of control | dose: 50.0 mg/kg/injection, schedule: Q01DX005 (ip), vehicle: saline + alcohol 105 % of control | dose: 100.0 mg/kg/injection, schedule: Q01DX005 (ip), vehicle: saline + alcohol 98 % of control | dose: 200.0 mg/kg/injection, schedule: Q01DX005 (ip), vehicle: saline + alcohol 91 % of control

O=c1[nH]c2cc(Cl)ccc2nc1/C=C(\O)c1cccc2ccccc12
inactive: [9] 89 % of control | [10] 88 % of control | [11] 90 % of control

NC(=O)C/C(N)=N/O
inactive: [5] 98 % of control | [6] 101 % of control | [7] 100 % of control

O=c1c(Cl)c(Cl)cnn1-c1ccccc1
inactive: [4] 100 % of control | dose: 50.0 mg/kg/injection, schedule: Q01DX001 (ip), vehicle: saline with Tween-80 118 % of control | [12] 111 % of control | [13] 111 % of control

OC(c1ccccc1)(C(F)(F)F)C(O)(c1ccccc1)C(F)(F)F (centres undefined)
inactive: [8] 99 % of control | dose: 100.0 mg/kg/injection, schedule: Q01DX009 (ip), vehicle: saline with Tween-80 104 % of control | dose: 200.0 mg/kg/injection, schedule: Q01DX009 (ip), vehicle: saline with Tween-80 87 % of control
